Entries after “also recorded” stand apart in the source; their conditions may differ. Where a SMILES comes first, the peptide text is derived from it. [ ]: non-standard residue; d: D form. Nle = CCCC[C@H](N)C(=O)O
What was measured:
CFTR = biological target: T1, CFTR (Homo sapiens, UniProt P13569, DEL508-508); test: MQAE assay of CFTR-mediated chloride transport in IB3-1 cells; format: cell-based; conditions: for MQAE fluorescence (Cl- channel activity): 10 μM forskolin or genistein, 5 μM CFTR inhibitor 172 or 14-22 amide (FIG. 5A)
T1 construct: expressed in transfected cells; host or cells: IB3-1 (ΔF508/W1282X) and CFTE (ΔF508 homozygous) cells
T1 sequence (P13569 with tags, fused parts or gaps DEL508-508): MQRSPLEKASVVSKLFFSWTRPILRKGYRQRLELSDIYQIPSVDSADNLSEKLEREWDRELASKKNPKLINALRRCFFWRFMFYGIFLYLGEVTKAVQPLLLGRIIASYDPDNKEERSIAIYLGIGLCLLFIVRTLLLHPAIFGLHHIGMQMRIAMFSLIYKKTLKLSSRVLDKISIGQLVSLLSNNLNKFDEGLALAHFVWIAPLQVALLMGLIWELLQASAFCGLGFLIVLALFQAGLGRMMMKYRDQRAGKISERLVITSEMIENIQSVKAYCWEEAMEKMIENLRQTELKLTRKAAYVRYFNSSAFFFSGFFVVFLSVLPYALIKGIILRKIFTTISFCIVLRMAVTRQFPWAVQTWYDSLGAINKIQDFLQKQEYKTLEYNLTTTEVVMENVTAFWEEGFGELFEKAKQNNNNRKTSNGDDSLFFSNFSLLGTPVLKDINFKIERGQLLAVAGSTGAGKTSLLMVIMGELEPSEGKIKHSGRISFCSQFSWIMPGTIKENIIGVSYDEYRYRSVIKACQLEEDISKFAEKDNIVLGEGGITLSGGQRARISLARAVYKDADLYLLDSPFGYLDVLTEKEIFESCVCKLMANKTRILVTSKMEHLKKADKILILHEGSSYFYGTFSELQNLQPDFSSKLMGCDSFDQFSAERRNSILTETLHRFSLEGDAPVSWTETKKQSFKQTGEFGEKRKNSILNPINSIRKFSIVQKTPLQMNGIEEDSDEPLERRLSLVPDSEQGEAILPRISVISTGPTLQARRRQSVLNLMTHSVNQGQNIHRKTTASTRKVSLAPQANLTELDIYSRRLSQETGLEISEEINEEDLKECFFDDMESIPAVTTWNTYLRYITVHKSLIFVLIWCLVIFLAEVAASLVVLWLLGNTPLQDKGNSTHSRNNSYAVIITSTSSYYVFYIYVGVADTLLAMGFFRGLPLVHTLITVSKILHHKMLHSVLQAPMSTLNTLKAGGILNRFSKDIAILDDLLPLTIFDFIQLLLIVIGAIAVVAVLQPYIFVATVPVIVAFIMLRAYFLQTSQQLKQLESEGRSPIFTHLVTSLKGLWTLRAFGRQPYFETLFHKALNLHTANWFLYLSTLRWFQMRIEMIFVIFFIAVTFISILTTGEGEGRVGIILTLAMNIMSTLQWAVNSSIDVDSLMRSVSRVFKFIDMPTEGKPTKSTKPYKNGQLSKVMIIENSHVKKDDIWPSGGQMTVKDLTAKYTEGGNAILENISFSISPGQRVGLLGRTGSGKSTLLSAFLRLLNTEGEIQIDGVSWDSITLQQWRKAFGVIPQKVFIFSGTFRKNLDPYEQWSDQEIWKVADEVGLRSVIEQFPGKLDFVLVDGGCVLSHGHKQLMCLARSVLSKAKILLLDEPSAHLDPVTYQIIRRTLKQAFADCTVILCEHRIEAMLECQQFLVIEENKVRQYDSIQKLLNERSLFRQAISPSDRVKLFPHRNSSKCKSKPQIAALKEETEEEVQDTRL
Method: CFTR-mediated chloride transport activity in IB3-1 cells transfected with ΔVCP, VCPQQ, Δgp78 and gp78ΔC constructs, and treated with bortezomib (1, 5 or 10 μM) was assayed by the halide-sensitive dye, MQAE. Fluorescence of MQAE is quenched by halides. Cells were grown on glass coverslips in DMEM containing 10% FBS. Cells were loaded with the dye by hypotonic shock at 37° C. for 40 min in Opti-MEM/water (1:1) containing 10 mM MQAE, washed and then mounted in a perfusion chamber for fluorescence measurements. Fluorescence was measured using a Zeiss inverted microscope coupled to a CCD camera Excitation and emission wavelengths were 350 nm and 460 nm, respectively. The stage and objective lenses were maintained at 37° C. The media was kept flowing through the perfusion chamber at 1 ml/min using a peristaltic pump. Both 10 μM forskolin and 10 μM genistein were used to induce Cl^− transport in IB3-1 cells. CFTR was inhibited with either 5 μM CFTR inhibitor 172 (12) or 14-22 amide (Calbiochem, San Diego, Calif.) to reduced cAMP mediated phosphorylation. Chloride efflux was calculated using following equations: F0/FCl=1+[Cl-]i*Ksv (1) F0=F20*(1+0.02*Ksv) (2) (dCl/dt)=F0/[Ksv*(FCl)2]*dFCl/dt (3)

[1] = system: streptococcal cell wall-induced polyarthritis; conditions: rat; cited from earlier work
IL8 = IL8 cytokine ELISA in IL1-β induced IB3-1 cells; format: cell-based, human; conditions: for IL8 cytokine levels: IL1-β 1 ng/ml 12 hrs
ΔF508-CFTR [2] = test: Pulse-chase metabolic labeling and CFTR immunoprecipitation in CFTE cells; format: cell-based, human; conditions: CFTE cells transfected with ΔF508-CFTR, 10 μM bortezomib 6 hrs, 42 hrs post-transfection (FIG. 2C)
Method: (§1) The IB3-1 (ΔF508/W1282X; low level expression of ΔF508-CFTR and no W1282X protein), CFTE (ΔF508-homozygous) and S9 (IB3-1 corrected by AAV-CFTR) cells were maintained in LHC-8 media containing 100 units/ml penicillin, 100 μg/ml streptomycin, 0.25 μg/ml amphotericin B and 10% fetal bovine serum. LHC-8 media was purchased from Biosource and other components were purchased from Gibco (Invitrogen, Carlsbad, Calif.). The cells were plated on 6-well plates and transfected with 4 μg plasmid DNA each of ΔF508/wt-CFTR-GFP and co-transfected with VCP shRNA (ΔVCP), VCPQQ construct (deficient in two AAA ATPase domains, D1 & D2), gp78 siRNA (Δgp78) or gp78ΔC (deficient in VCP binding domain) constructs using Lipofectamine 2000 (Invitrogen, Carlsbad, Calif.) as described by the manufacturer. After 48 hrs of transfection, cells were rinsed three times and starved for 1 hr in methionine- and cysteine-free Dulbecco's modified Eagle's medium (DMEM). Cells were pulse labeled with 250 μci/ml [^35S]-methionine and cysteine (ICN Biomedical, Irvine, Calif.) for 30 min and than chased in DMEM containing 10 mM methionine and 4 mM cysteine for indicated times.
(§2) Cells were lysed directly on plates using M-PER (Pierce Biotech. Inc., Rockford, Ill.) protein lysis buffer containing protease inhibitor cocktail (Roche) after three washes with ice cold PBS. […] Proteins were detected using respective primary antibodies. […]

Hsp70 = test: Immunoblotting for Hsp70 in IB3-1 cells; format: cell-based, human; conditions: IB3-1 cells treated with bortezomib 6 hrs (FIG. 3A)
Method: (§3) Cells were lysed directly on plates using M-PER (Pierce Biotech. Inc., Rockford, Ill.) protein lysis buffer containing protease inhibitor cocktail (Roche) after three washes with ice cold PBS. CF bronchial brushings were transferred to lysis buffer. For immunoprecipitation, 500 μg/ml (cell culture)/50 μg/ml (bronchial brushings) total protein extracts were incubated with 50 μl of protein A/G agarose beads (Santa Cruz Biotechnology Inc., Santa Cruz, Calif.) for 3 hours at 4° C. After preclearing, 5 μg of respective primary antibody or pre-immune sera (negative control) was added to each tube. After 1 hour, protein A/G agarose beads (50 μL) were added to each tube and tubes were incubated overnight at 4° C. Beads were washed once with lysis buffer (20 mM Tris-HCl [pH 7.6], 150 mM NaCl, 0.5% Triton X-100 and 10 μM phenylmethylsulfonyl fluoride [PMSF]) followed with two washes with phosphate buffer saline (PBS). The beads were suspended in Laemmli's sample buffer (30 μL) containing β-mercaptoethanol, vortexed for 1 minute, resolved by 4-10% SDS-PAGE and transferred to a 0.4-μm pore size nitrocellulose membrane. Proteins were detected using respective primary antibodies. For pulse chase experiments, CFTR immunoprecipitate was eluted with sample buffer and separated on a 4-8% SDS-PAGE, dried for 2 hours and processed for autoradiography.

[3] = system: E-selectin, ICAM-1, and VCAM-1; conditions: primary human umbilical vein endothelial cells; cited from earlier work
IB3-1 cells = test: Microscopic examination of cell morphology; format: cell-based, human; conditions: 10 μM bortezomib 6 hrs, phase microscopy (data not shown)
NFκB = test: NoShift NFκB binding assay on nuclear extracts of IB3-1 cells; format: cell-based, human; conditions: for NFκB binding (absorbance at 450 nm): IL1-β 1 ng/ml 12 hrs, transfection 24 hrs or 5 μM bortezomib / 5 μM MLN-273 6 hrs (FIG. 6C)
Method: IB3-1 cells transfected (24 hrs) with ΔVCP, ΔF508 or ΔCHOP were treated with 5 μM bortezomib (6 hrs)/5 μM MLN-273 (6 hrs)/5 mM 4PBA (24 hrs). Cells were induced with IL-β(1 ng/ml) for 12 hrs. After 24 hrs of transfection, nuclear extracts (11) were collected using NucBuster protein extraction kit (Novagen, San Diego, Calif.) and the shift in bound NFκB was measured using NoShift NFκB Binding Assay kit (Novagen, San Diego, Calif.) as specified by the manufacturer. The signal from nuclear extracts was compared with the negative control (minus extract). The specificity of protein binding was established using NFκB specific and mutant competitors. The plates were read at 450 nm on 96-well microplate reader (Molecular Devices) using SOFT-MAX-Pro software. The absorbance readings were used to determine the levels of bound NFκB. The data represents mean of three independent experiments±SD.

gp78 = test: Immunoblotting for gp78 in IB3-1 cells; format: cell-based, human; conditions: IB3-1 cells treated with bortezomib 6 hrs (FIG. 3A)
Method: as §3

wt-CFTR = test: Pulse-chase metabolic labeling and CFTR immunoprecipitation in S9 cells; format: cell-based, human; conditions: S9 cells transfected with wt-CFTR; ΔVCP 48 hrs or 10 μM bortezomib 6 hrs (FIG. 2B)
Method: as §1, §2

Hsp40 = test: Immunoblotting for Hsp40 in IB3-1 cells; format: cell-based, human; conditions: IB3-1 cells treated with bortezomib 6 hrs (FIG. 3A)
Method: as §3

proteasome = test: Protease activity in IB3-1 cells; format: cell-based, human; conditions: 10 μM, 6 hrs treatment
ΔF508-CFTR [4] = test: Pulse-chase metabolic labeling and CFTR immunoprecipitation in IB3-1 cells; format: cell-based, human; conditions: metabolic labeling t=2 hrs, transfection 48 hrs or 10 μM bortezomib 6 hrs (FIG. 2D)
Method: as §1, §2

NF-κB = conditions: mammalian cells; cited from earlier work
VCP = test: Immunoblotting for VCP in IB3-1 cells; format: cell-based, human; conditions: IB3-1 cells treated with bortezomib 6 hrs (FIG. 3A)
Method: as §3

ΔF508-CFTR [5] = system: ΔF508-CFTR; design: dose or concentration left out as unconfirmed; conditions: cited from earlier work
[6] = transfection 24 hrs or 5 μM bortezomib / 5 μM MLN-273 6 hrs (FIG. 6B)

O=C(O)c1ccc(/C=C2\SC(=S)N(c3cccc(C(F)(F)F)c3)C2=O)cc1 [172 inhibitor]
MQAE fluorescence (Cl- channel activity) (CFTR; IB3-1 cells): block the cAMP mediated cystic fibrosis transmembrane receptor (CFTR) activity

O=c1c(-c2ccc(O)cc2)coc2cc(O)cc(O)c12 [genistein]
MQAE fluorescence (Cl- channel activity) (CFTR; IB3-1 cells): significant change | MQAE fluorescence (Cl- channel activity) (CFTR; IB3-1 cells, listed as Genistein): significant increase

CC(C)C[C@H](NC(=O)[C@H](Cc1ccccc1)NC(=O)c1cnccn1)B(O)O [bortezomib, pyrazylcarbonyl-Phe-Leu-boronate]
T cell-dependent chronic phase of the inflammatory response [1]: markedly inhibited | neutrophil-predominant acute phase of the inflammatory response [1]: attenuated | IL8 cytokine levels (IL8; [6]): significantly inhibited | IL8 cytokine levels (IL8; transfection 48 hrs or 5 μM bortezomib 6 hrs (FIG. 6A)): significantly downregulated; also recorded: significantly inhibited | combined effect of ΔCHOP and bortezomib on IL8 down regulation (IL8; ΔCHOP 24 hrs plus 5 μM bortezomib 6 hrs, IL1-β 1 ng/ml (FIG. 6B)): synergistic effect | ΔF508-CFTR accumulation and rescue (ΔF508-CFTR [2]): significant increase in the accumulation and stabilization of the B form; also recorded: rescues the ΔF508-CFTR mature (C-form) by 2 hrs | genistein mediated chloride efflux (CFTR; IB3-1 cells transfected with ΔF508-CFTR, bortezomib 5 or 10 μM for 6 hrs, bars in mM/s (FIG. 5C)): augmented chloride efflux; also recorded: significantly induced | combined effect with genistein on rescue of functional ΔF508-CFTR (CFTR; IB3-1 cells, with genistein (FIG. 5C)): synergistic effect | Hsp70 protein level (Hsp70): Induction | Hsp70 protein level (Hsp70; listed as Bortezomib): induced | TNF-α-induced gene expression of cell-surface adhesion molecules [3]: inhibits | morphology of treated vs untreated monolayers (IB3-1 cells): no difference in morphology | NFκB binding (absorbance at 450 nm) (NFκB): significantly inhibited | combined effect of ΔCHOP and bortezomib on NFκB binding (NFκB; ΔCHOP 24 hrs plus 5 μM bortezomib 6 hrs, IL1-β 1 ng/ml (FIG. 6C)): synergistic effect | gp78 protein level (gp78): no change | wt-CFTR maturation and stability, band B to band C (wt-CFTR): substantial amounts of mature band C; also recorded: stabilizes the wild type-CFTR mature (C-form) | Hsp40 protein level (Hsp40): no change | protease activity (proteasome): partial inhibition | level of immature B form of ΔF508-CFTR (ΔF508-CFTR [4]): partially rescues | rescue of ΔF508-CFTR from ERAD (ΔF508-CFTR [4]): partially rescued ΔF508-CFTR | NF-κB activation and NF-κB-dependent gene expression (NF-κB): inhibit NF-κB activation and NF-κB-dependent gene expression | VCP protein level (VCP): inhibition | VCP protein level (VCP; listed as Bortezomib): inhibited

CC(C)C[C@H](NC(=O)[C@H](Cc1cccc2ccccc12)NC(=O)N1CCOCC1)B(O)O [MLN273]
IL8 cytokine levels (IL8; [6]): significantly inhibited | NFκB binding (absorbance at 450 nm) (NFκB): significantly inhibited

CCCC[C@@H](C=O)NC(=O)[C@H](CC(C)C)NC(=O)[C@H](CC(C)C)NC(C)=O [ALLN, N-acetyl-leucylleucyl-Norleucinal] (Ac-Leu-Leu-[Nle]-aldehyde)
ΔF508-CFTR degradation (ΔF508-CFTR [5]): blocks ΔF508-CFTR it degradation

From patent US8273700B2, “Methods and compositions for treatment of cystic fibrosis” (The Johns Hopkins University, priority 2005, dated 2012)
